Data from ChEMBL document CHEMBL1201862, “PubChem BioAssay data set” (2004).
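Five compound concentrations were applied to cells in 96-well plates for 48 hours; endpoints were derived by simple linear interpolation of the resulting dose-response curve. Abbreviation: GI50, concentration required for 50% inhibition of growth.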 Activity calls are given as the source filed them. Cut-off read from the data, not from the text of the source: active = GI50 up to about 1.1 µM and inactive = higher.

Assays:
Experiment in all cases: NCI-60 cell line screen, 48 h
[1] = tested on: EKVX
[2] = tested on: RPMI-8226
[3] = tested on: MCF7
[4] = tested on: DU-145
[5] = tested on: HOP-92
[6] = tested on: 786-0
[7] = tested on: SK-MEL-2
[8] = tested on: A549
[9] = tested on: COLO 205
[10] = tested on: HOP-62
[11] = tested on: HT-29
[12] = tested on: NCI-H460
[13] = tested on: SR
[14] = tested on: NCI-H226
[15] = tested on: HL-60
[16] = tested on: UACC-62
[17] = tested on: NCI/ADR-RES
[18] = tested on: T47D
[19] = tested on: MDA-MB-231
[20] = tested on: LOX IMVI

Measured: GI50

Oc1[nH]c(Nc2ccc(Cl)cc2)nc2ncnc1-2
inactive: [1] > 100 µM | [2] > 100 µM | [3] > 100 µM | [4] 70.1 µM | [5] 81.3 µM | [6] > 100 µM | [7] > 100 µM | [8] > 100 µM | [9] > 100 µM | [10] > 100 µM | [11] 47.4 µM | [12] > 100 µM | [13] 44.9 µM | [14] > 100 µM | [15] > 100 µM | [16] > 100 µM | [17] > 100 µM | [18] 61.7 µM | [19] 88.3 µM | [20] > 100 µM

Cc1cc(C)c(S(=O)(=O)N(CCCN)OCCCON(CCCN)S(=O)(=O)c2c(C)cc(C)cc2C)c(C)c1
inactive: [1] 5.92 µM | [2] 2.38 µM | [3] 1.82 µM | [4] 1.71 µM | [5] 1.98 µM | [6] 2.33 µM | [7] 1.79 µM | [8] 1.77 µM | [9] 1.78 µM | [10] 1.91 µM | [11] 1.67 µM | [12] 1.67 µM | [13] 2.07 µM | [14] 2.2 µM | [15] 1.91 µM | [16] 2.52 µM | [17] 18.9 µM | [18] 1.61 µM | [19] 1.77 µM | [20] 1.87 µM

O=C1CCc2cc([N+](=O)[O-])ccc2O1
inactive: [1] > 100 µM | [2] > 100 µM | [3] > 100 µM | [4] > 100 µM | [5] > 100 µM | [6] > 100 µM | [7] > 100 µM | [8] > 100 µM | [9] > 100 µM | [10] > 100 µM | [11] > 100 µM | [12] > 100 µM | [13] > 100 µM | [14] > 100 µM | [15] > 100 µM | [16] > 100 µM | [17] > 100 µM | [18] > 100 µM | [19] > 100 µM | [20] > 100 µM

CC(C)(C)OC(=O)n1cc(C2CN(O)C(=O)C23CCC(=O)N3Cc2ccccc2)c2ccccc21 (stereo not given)
inactive: [1] 21.9 µM | [2] 31.6 µM | [3] 33.5 µM | [4] 60.1 µM | [5] 4.46 µM | [6] 45.9 µM | [7] 14.8 µM | [8] 35.3 µM | [9] 36.1 µM | [10] 93.1 µM | [11] 39.9 µM | [12] 56.4 µM | [13] 44.6 µM | [14] 24.5 µM | [15] 54.2 µM | [16] 68.1 µM | [17] 69.5 µM | [18] 50.6 µM | [19] 28.8 µM | [20] 21.2 µM

CC(=O)Oc1c(OC(C)C)c(C)c(O[Si](C(C)C)(C(C)C)C(C)C)c2[nH]c3ccccc3c12
inactive: [1] > 45 µM | [2] 71.1 µM | [3] 56.6 µM | [4] > 100 µM | [5] > 100 µM | [6] > 100 µM | [7] > 100 µM | [8] > 82.2 µM | [9] > 100 µM | [10] > 100 µM | [11] 38.5 µM | [12] > 100 µM | [13] 25.5 µM | [14] > 100 µM | [15] 2.62 µM | [16] > 100 µM | [17] > 100 µM | [18] 44.4 µM | [19] > 88.3 µM | [20] > 100 µM
